Where two headings read alike, the source gives them in different places.
Tested on: primary rat mixed cortical cells
Test: In vitro myelination assay (MBP positive myelin strands, fold myelin pixels above background)
Assay type: cell-based
Conditions: Rattus norvegicus; for fold induction at 1 µM: 1.0 μM compound; for fold induction at 10 µM: 10.0 μM compound
Method in brief: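 Compounds at 1.0 and 10.0 μM were incubated 14 days with dissociated P1 rat cortical cells, which were then fixed and immunostained for MBP. Myelination was scored as fold MBP myelin pixels per well over the no-compound baseline.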

[1] = relative to baseline of no added compound, read-out: Fold myelin pixels above background, 1.0 μM
[2] = relative to baseline of no added compound, read-out: Fold myelin pixels above background, 10.0 μM
[3] = relative to baseline of no added compound, read-out: Fold myelin pixels above background
[4] = read-out: Fold myelin pixels above background relative to baseline of no added compound

SMILES	fold induction at 1 µM [1]	fold induction at 10 µM [2]	fold induction at 1 µM [3]	fold induction at 10 µM [3]	further results
CC(C)(O)[C@@H]1CN(c2cc(Nc3ncn(-c4cc(F)cc(F)c4)n3)cc(C(F)(F)F)c2)CCN1 [Compound 123, 2-[(2S)-4-[3-[[1-(3,5-difluorophenyl)-1,2,4-triazol-3-yl]amino]-5-(trifluoromethyl)phenyl]piperazin-2-yl]propan-2-ol]	1 to 10	≤ 1			
Fc1cc(Nc2ncn(-c3ccc(F)cc3F)n2)cc(NC2CNC2)c1 [Compound 177, N1-(azetidin-3-yl)-N3-[1-(2,4-difluorophenyl)-1,2,4-triazol-3-yl]-5-fluoro-benzene-1,3-diamine]	≤ 1	≤ 1			
Cc1cc(Nc2ncn(-c3cc(F)cc(F)c3)n2)cc(C2CN(C3COC3)C2)c1 [Compound 229, 1-(3,5-difluorophenyl)-N-[3-methyl-5-[1-(oxetan-3-yl)azetidin-3-yl]phenyl]-1,2,4-triazol-3-amine]	100 to 1000	100 to 1000			
FC(F)c1cc(Nc2ncn(-c3cnccn3)n2)nc(N2CCN(C3COC3)CC2)c1 [Compound 576, 4-(difluoromethyl)-6-[4-(oxetan-3-yl)piperazin-1-yl]-N-(1-pyrazin-2-yl-1,2,4-triazol-3-yl)pyridin-2-amine]			10 to 100	10 to 100	
Fc1cc(Nc2ncn(-c3ccc(C(F)(F)F)cc3)n2)cc(N2CCCC2)c1 [Compound 441, N-(3-fluoro-5-pyrrolidin-1-yl-phenyl)-1-[4-(trifluoromethyl)phenyl]-1,2,4-triazol-3-amine]			1 to 10	≤ 1	
Fc1cc(F)cc(-n2cnc(Nc3cc(C4CC4)nc(N4CC[C@@H](F)C4)c3)n2)c1 [Compound 105, 2-cyclopropyl-N-[1-(3,5-difluorophenyl)-1,2,4-triazol-3-yl]-6-[(3R)-3-fluoropyrrolidin-1-yl]pyridin-4-amine]	100 to 1000	1 to 10			
COc1cc(F)cc(-n2cnc(Nc3cc(C4CC4)cc(N4CCN(C5COC5)CC4)c3)n2)c1 [Compound 388, N-[3-cyclopropyl-5-[4-(oxetan-3-yl)piperazin-1-yl]phenyl]-1-(3-fluoro-5-methoxy-phenyl)-1,2,4-triazol-3-amine]			10 to 100	≤ 1	
Cc1cc(CN2CCN(C3COC3)CC2)cc(Nc2ncn(-c3ccc(F)c(F)c3)n2)c1 [Compound 840, 1-(3,4-difluorophenyl)-N-[3-methyl-5-[[4-(oxetan-3-yl)piperazin-1-yl]methyl]phenyl]-1,2,4-triazol-3-amine]					fold induction at 1 µM [4]: 10 to 100; fold induction at 10 µM [4]: 10 to 100
COCC1CCN(c2cc(C)cc(Nc3ncn(-c4cc(F)cc(F)c4)n3)n2)CC1 [Compound 619, N-[1-(3,5-difluorophenyl)-1,2,4-triazol-3-yl]-6-[4-(methoxymethyl)-1-piperidyl]-4-methyl-pyridin-2-amine]			1 to 10	1 to 10	
COC1CN(c2cc(C)cc(Nc3ncn(-c4cc(F)cc(F)c4)n3)c2)C1 [Compound 2, 1-(3,5-difluorophenyl)-N-[3-(3-methoxyazetidin-1-yl)-5-methyl-phenyl]-1,2,4-triazol-3-amine]	100 to 1000	100 to 1000			
CN1CCCN(c2cc(F)cc(Nc3ncn(-c4ccc(F)cc4F)n3)c2)CC1 [Compound 28, 1-(2,4-difluorophenyl)-N-[3-fluoro-5-(4-methyl-1,4-diazepan-1-yl)phenyl]-1,2,4-triazol-3-amine]	≤ 1	≤ 1			
Cc1cc(Nc2ncn(-c3cc(F)cc(F)c3)n2)cc(OCCn2cccn2)c1 [Compound 832, 1-(3,5-difluorophenyl)-N-[3-methyl-5-(2-pyrazol-1-ylethoxy)phenyl]-1,2,4-triazol-3-amine]					fold induction at 1 µM [4]: 10 to 100; fold induction at 10 µM [4]: 10 to 100
CC(=O)N1CCCC(c2cc(C)cc(Nc3ncn(-c4cc(F)cc(F)c4)n3)c2)C1 (stereo not shown) [Compound 266, 1-[3-[3-[[1-(3,5-difluorophenyl)-1,2,4-triazol-3-yl]amino]-5-methyl-phenyl]-1-piperidyl]ethanone]	10 to 100	100 to 1000			
COc1cc(Nc2ncn(-c3cc(F)cc(C(F)(F)F)c3)n2)cc(N2CCN(C3COC3)CC2)c1 [Compound 754, 1-[3-fluoro-5-(trifluoromethyl)phenyl]-N-[3-methoxy-5-[4-(oxetan-3-yl)piperazin-1-yl]phenyl]-1,2,4-triazol-3-amine]			10 to 100	1 to 10	
Cc1ccc(-n2cnc(Nc3cc(C)cc(N4CCN(C5COC5)CC4)c3)n2)cc1 [Compound 70, N-[3-methyl-5-[4-(oxetan-3-yl)piperazin-1-yl]phenyl]-1-(p-tolyl)-1,2,4-triazol-3-amine]	≤ 1	10 to 100			
COCC1(CNc2cc(C)cc(Nc3ncn(-c4cc(F)cc(F)c4)n3)c2)CC1 [Compound 937, N1-[1-(3,5-difluorophenyl)-1,2,4-triazol-3-yl]-N3-[[1-(methoxymethyl)cyclopropyl]methyl]-5-methyl-benzene-1,3-diamine]					fold induction at 1 µM [4]: 1 to 10; fold induction at 10 µM [4]: ≤ 1
Cc1cc(Nc2ncn(-c3cc(F)cc(F)c3)n2)cc([C@]2(O)CCN(C3COC3)C2)c1 [Compound 487, (3R)-3-[3-[[1-(3,5-difluorophenyl)-1,2,4-triazol-3-yl]amino]-5-methyl-phenyl]-1-(oxetan-3-yl)pyrrolidin-3-ol]			100 to 1000	1 to 10	
CCc1cc(Nc2ncn(-c3ccc(C(F)(F)F)cc3)n2)cc(N2CCN(C3COC3)CC2)c1 [Compound 322, N-[3-ethyl-5-[4-(oxetan-3-yl)piperazin-1-yl]phenyl]-1-[4-(trifluoromethyl)phenyl]-1,2,4-triazol-3-amine]	1 to 10	1 to 10			
Cc1cc(Nc2ncn(-c3cc(F)cc(F)c3)n2)nc(OCC2CC2)c1 [Compound 980, 6-(cyclopropylmethoxy)-N-[1-(3,5-difluorophenyl)-1,2,4-triazol-3-yl]-4-methyl-pyridin-2-amine]					fold induction at 1 µM [4]: 1 to 10; fold induction at 10 µM [4]: 1 to 10
CCOC(=O)N1CCN(c2cc(C)cc(Nc3ncn(-c4cc(F)cc(F)c4)n3)c2)CC1 [Compound 196, ethyl 4-[3-[[1-(3,5-difluorophenyl)-1,2,4-triazol-3-yl]amino]-5-methyl-phenyl]piperazine-1-carboxylate]	≤ 1	≤ 1			
Cc1cc(Nc2ncn(-c3cc(F)cc(F)c3)n2)cc(C2(O)CCN(C3COC3)CC2)c1 [Compound 516, 4-[3-[[1-(3,5-difluorophenyl)-1,2,4-triazol-3-yl]amino]-5-methyl-phenyl]-1-(oxetan-3-yl)piperidin-4-ol]			10 to 100	10 to 100	
Cc1cc(Nc2ncn(-c3ccccc3)n2)cc(N2CCN(C3CCOC3)CC2)c1 (stereo not shown) [Compound 434, N-[3-methyl-5-(4-tetrahydrofuran-3-ylpiperazin-1-yl)phenyl]-1-phenyl-1,2,4-triazol-3-amine]			1000 to 10000	1000 to 10000	
Cc1cc(Nc2ncn(-c3cc(F)cc(F)c3)n2)cc(N2CCN(CCCN3CCCC3)CC2)c1 [Compound 945, 1-(3,5-difluorophenyl)-N-[3-methyl-5-[4-(3-pyrrolidin-1-ylpropyl)piperazin-1-yl]phenyl]-1,2,4-triazol-3-amine]					fold induction at 1 µM [4]: 1 to 10; fold induction at 10 µM [4]: ≤ 1

— patent US10766869B2, “Triazoles for the treatment of demyelinating dieases” (Vertex Pharmaceuticals Incorporated, priority 2015, dated 2020)
